Source: PMC9973354 (mBio, 2022)
Values joined by “and” are separate entries in the source; they are usually repeats but may differ in a detail not shown here. Identical values can stand only once. Like-named read-outs stand apart in the source and are kept apart here.

Legend:
[1] = system: PA14 ΔfpvA ΔfpvB ΔfiuA ΔfoxA pHERD20T-fpvB Y216T; assay: Growth of quadruple mutant expressing FpvB Y216T; type: cell-based, Pseudomonas aeruginosa; conditions: 10:90 + 2% arabinose
Protocol: (§1) Site-directed mutagenesis was used to confirm the docking predictions and to define the molecular determinants for ligand uptake through FpvB (Fig. 4C). We generated 17 single amino acid substitutions in FpvB and expressed each of them in trans in the quadruple ΔfpvA ΔfpvB ΔfiuA ΔfoxA mutant. Their ability to complement growth of the mutant in the presence of ferrichrome and ferrioxamine B and to restore TS susceptibility was assessed. […] The mutant transporters were tagged with a C-terminal FLAG tag to evaluate expression levels. FLAG-tagged FpvB mutants had WT levels of expression except for Y216T and W347V, which were expressed at 140% and 25% of WT, respectively.
(§2) The ΔfpvA ΔfpvB ΔfiuA ΔfoxA mutant was complemented with WT fpvA, fpvB, fiuA, and foxA in trans as controls (Fig. 4E).
(§3) MIC assays were conducted as previously described ([13], [14]). Overnight cultures were grown in LB from a glycerol stock at 37°C with shaking (200 rpm). Subcultures in 10:90 (1:100 dilution) were cultured for 4 h. Cells were adjusted to an optical density at 600 nm (OD600) of 0.1/500 in 10:90. All compounds were serially diluted 2-fold in dimethyl sulfoxide (DMSO) or H2O at 75× the final concentration. […] The next day, the OD600 was determined with a plate reader (Thermo Scientific) and normalized to percent of growth of the vehicle control after subtracting the OD600 from blank media.

FpvB R648C = target: T1, FpvB R648C (Pseudomonas aeruginosa, UniProt A0A0H2ZFZ5, R648C); assay: Whole-cell fluorescence quenching, FpvB R648C in quadruple mutant; type: binding; conditions: FpvB R648C in quadruple mutant, two-site model
T1 sequence (A0A0H2ZFZ5 23-802 R648C): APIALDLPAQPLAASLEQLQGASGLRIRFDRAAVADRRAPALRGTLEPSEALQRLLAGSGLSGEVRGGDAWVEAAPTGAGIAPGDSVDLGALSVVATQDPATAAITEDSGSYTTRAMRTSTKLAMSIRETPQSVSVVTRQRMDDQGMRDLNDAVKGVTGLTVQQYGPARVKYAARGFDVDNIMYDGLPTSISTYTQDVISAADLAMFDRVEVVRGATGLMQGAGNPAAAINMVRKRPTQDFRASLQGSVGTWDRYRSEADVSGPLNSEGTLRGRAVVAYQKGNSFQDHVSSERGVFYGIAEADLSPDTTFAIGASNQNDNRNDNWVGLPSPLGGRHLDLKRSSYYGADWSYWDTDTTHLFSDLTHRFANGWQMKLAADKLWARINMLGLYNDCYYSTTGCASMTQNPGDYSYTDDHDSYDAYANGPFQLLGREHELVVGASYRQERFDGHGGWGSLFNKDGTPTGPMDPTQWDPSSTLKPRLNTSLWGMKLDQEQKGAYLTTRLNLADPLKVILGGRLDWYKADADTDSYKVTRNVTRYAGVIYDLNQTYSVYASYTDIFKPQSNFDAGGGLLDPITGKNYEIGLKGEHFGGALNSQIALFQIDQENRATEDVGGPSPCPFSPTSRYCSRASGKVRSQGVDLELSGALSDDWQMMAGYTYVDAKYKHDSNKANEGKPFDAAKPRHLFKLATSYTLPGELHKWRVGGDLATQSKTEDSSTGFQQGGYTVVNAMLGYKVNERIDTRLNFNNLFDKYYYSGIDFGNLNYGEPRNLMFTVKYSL
Protocol: Quenching assays with the two xenosiderophores were repeated for the quadruple TBDT mutant expressing WT FpvB, FpvB R191A R648C, or W347V R648C.
Cells were cultured overnight in LB with carbenicillin (200 μg/mL) at 37°C with shaking at 200 rpm. Cells were subcultured (1:200 dilution) in 10:90 plus 2% arabinose for 4 h without carbenicillin at 37°C with shaking at 200 rpm. Cells were harvested by centrifugation for 5 min and 6,000 × g and resuspended in sterile 1× phosphate-buffered saline (PBS) (pH 7.4); 1× PBS was made from a 10× stock (80 g NaCl, 2 g KCl, 26.8 g Na2 HPO4-7H2O, 2.4 g KH2PO4 in 1 L of deionized H2O) with 10 μM Alexa Fluor 594 C5 maleimide for microscopy or fluorescein-5-maleimide for fluorescence quenching and recovery assays and incubated in the dark at room temperature for 30 min on a shaking incubator at 37°C (200 rpm). Excess dye was quenched with 1 mM dithiothreitol (DTT) (Sigma) to stop the reaction. Cells were washed 3× with PBS. For fluorescence recovery assays, cells were incubated with 1× PBS plus 0.4% glucose at 37°C with shaking at 200 rpm. Glucose was prepared as a 20% stock (wt/vol) in 1× PBS and filter sterilized. Cells were spun down and washed 3× with 1× PBS and resuspended in 1× PBS for quenching assays and 1× PBS plus 0.4% glucose for fluorescence recovery assays.
For fluorescence quenching and recovery assays, cells were diluted to an OD600 of 0.1 for both types of assays, and 148 μL was added into wells of a 96-well black plate (Corning). Fluorescence was recorded for 5 min at 1-min intervals at 37°C (BioTek Neo; excitation, 494 nm; emission, 520 nm). After 5 min, 2 μL of each serial dilution for ferrioxamine-Fe^3+, ferrichrome-Fe^3+, and pyoverdine-Fe^3+ or DMSO for vehicle controls was added to each well. Fluorescence was recorded immediately for quenching assays and for 1 h at 1-min intervals for fluorescence recovery assays. Background fluorescence was subtracted from all fluorescence readings and 1-F/F0 was used to calculate the degree of quenching, where F0 is the initial fluorescence. Kd was calculated using GraphPad Prism using a one-site specific binding model or a two-site model. For fluorescence recovery assays, background was subtracted from all fluorescence readings and F/F0 expressed as a percent of control was plotted versus time.

[2] = system: PA14 ΔfpvA ΔfpvB ΔfiuA ΔfoxA pHERD20T-fpvB D219A; assay: Growth of quadruple mutant expressing FpvB D219A; type: cell-based, Pseudomonas aeruginosa; conditions: 10:90 + 2% arabinose
Protocol: as §1, §2, §3

CC(=O)N(O)CCCCCNC(=O)CCC(=O)N(O)CCCCCNC(=O)CCC(=O)N(O)CCCCCN [ferrioxamine B]
growth in the presence of siderophore [1]: prevented growth
Kd (FpvB R648C; read-out: Kd1 (converted)): 0.178 µM and 0.17 µM
Kd (FpvB R648C; read-out: Kd2 (converted)): 660 µM and 600 µM
growth in the presence of siderophore [2]: prevented growth
